Nc1cccc2ccncc12
solubility (mole fraction)
Conditions	in DMF	in acetone	in acetonitrile	in ethanol	in ethylene glycol	in isopropanol	in methanol	in n-propanol	in propylene glycol	in water
278.15 K	0.00564	0.00309	0.00458	0.00135	0.000113	0.00283	0.000354	0.00359	0.000176	3.46e-05
283.15 K	0.00693	0.00371	0.00539	0.00161	0.000132	0.00344	0.000411	0.0042	0.000211	4e-05
288.15 K	0.00832	0.00439	0.00651	0.00191	0.000156	0.00401	0.000483	0.00497	0.000254	4.6e-05
293.15 K	0.01	0.00532	0.00789	0.0022	0.000183	0.00477	0.000559	0.00593	0.000304	5.45e-05
298.15 K	0.0119	0.00636	0.00939	0.00261	0.00022	0.00566	0.000664	0.007	0.000366	6.21e-05
303.15 K	0.0141	0.00752	0.0111	0.00308	0.000261	0.00664	0.000773	0.00831	0.000433	7.2e-05
308.15 K	0.0167	0.00896	0.0131	0.00365	0.000313	0.00784	0.000919	0.00984	0.000516	8.42e-05
313.15 K	0.0196	0.0105	0.0156	0.0043	0.000367	0.00934	0.00107	0.0115	0.000608	9.8e-05
318.15 K	0.023	0.0122	0.0182	0.00508	0.000429	0.0109	0.00128	0.0135	0.000718	0.000113
323.15 K	0.0267	0.0143	0.0219	0.00602	0.000505	0.0128	0.00151	0.0158	0.00085	0.000132

Source: BigSolDB 2.1
